Assays:
[1] = system: NCI-H358 cells (K-Ras G12C); assay: Potency assay: pERK in NCI-H358 cells; format: cell-based, human; conditions: Homo sapiens, NCI-H358; H358 KRAS G12C; read-out: pERK EC50
Method in brief: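 pERK decrease read by AlphaLISA SureFire p-ERK1/2 or In-Cell Western after 4 h compound exposure at 37 °C, 5% CO2.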

[2] = target: K-Ras G12C (Homo sapiens (Human), UniProt P01116+P62937, G12C); assay: Ras-Raf (BRAF RBD) disruption / FRET / MOA assay, KRAS G12C; format: biochemical; conditions: KRAS G12C; Ras-Raf disruption/FRET/MOA assay; read-out: IC50* KRAS G12C FRET data
Method in brief: (§1)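 A 10-point, 3-fold dilution series topping at 30 μM final was incubated 3 h at 25° C with the Ras/cyclophilin A/BRAF RBD mixture.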

[3] = target: KRAS G12S (Homo sapiens (Human), UniProt P01116+P62937, G12S); assay: Ras-Raf (BRAF RBD) disruption / FRET / MOA assay, KRAS G12S; format: biochemical; conditions: Ras-Raf disruption/FRET/MOA assay; class symbols; read-out: KRAS G12S FRET data IC50
Method in brief: as §1

[4] = target: KRAS G12V (Homo sapiens (Human), UniProt P01116+P62937, G12V); assay: Ras-Raf (BRAF RBD) disruption / FRET / MOA assay, KRAS G12V; format: biochemical; conditions: read-out: IC50* KRAS G12V FRET data
Method in brief: as §1

[5] = target: KRAS G13D (Homo sapiens (Human), UniProt P01116+P62937, G13D); assay: Ras-Raf (BRAF RBD) disruption / FRET / MOA assay, KRAS G13D; format: biochemical; conditions: read-out: IC50* KRAS G13D FRET data
Method in brief: as §1

[6] = target: NRAS G12C (Homo sapiens (Human), UniProt P01111+P62937, G12C); assay: Ras-Raf (BRAF RBD) disruption / FRET / MOA assay, NRAS G12C; format: biochemical; conditions: read-out: IC50* NRAS G12C FRET data
Method in brief: as §1

[7] = target: NRAS WT (Homo sapiens (Human), UniProt P01111+P62937); assay: Ras-Raf (BRAF RBD) disruption / FRET / MOA assay, NRAS WT; format: biochemical; conditions: read-out: IC50* NRAS WT FRET data
Method in brief: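 Compounds (30 μM top final, 10-point 3-fold dilutions) incubated 3 h at 25° C with nucleotide-loaded Ras, cyclophilin A and BRAF RBD. Detection with 10 nM anti-His Eu-W1024 and 50 nM anti-GST allophycocyanin over another 1.5 h. Lowered TR-FRET ratio relative to DMSO wells gives IC50.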

Chain of NRAS WT (P01111 whole entry): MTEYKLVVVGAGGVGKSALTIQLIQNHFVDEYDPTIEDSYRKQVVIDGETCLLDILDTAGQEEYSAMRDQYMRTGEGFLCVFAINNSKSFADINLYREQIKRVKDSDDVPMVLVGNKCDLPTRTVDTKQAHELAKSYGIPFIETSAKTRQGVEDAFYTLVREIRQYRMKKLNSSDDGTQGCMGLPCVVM
Chain of NRAS WT (P62937 whole entry): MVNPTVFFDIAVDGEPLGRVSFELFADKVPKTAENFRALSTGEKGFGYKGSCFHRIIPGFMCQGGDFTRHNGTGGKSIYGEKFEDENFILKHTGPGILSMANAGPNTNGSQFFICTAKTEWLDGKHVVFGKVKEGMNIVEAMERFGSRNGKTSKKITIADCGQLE
Chain of NRAS G12C (P01111 whole entry G12C): as the sequence (P01111 whole entry) above, with G12C counted along it
Chain of NRAS G12C (P62937 whole entry): as the sequence (P62937 whole entry) above
Chain of KRAS G12S (P01116-2 other isoform, or with tags, fused parts or gaps G12S): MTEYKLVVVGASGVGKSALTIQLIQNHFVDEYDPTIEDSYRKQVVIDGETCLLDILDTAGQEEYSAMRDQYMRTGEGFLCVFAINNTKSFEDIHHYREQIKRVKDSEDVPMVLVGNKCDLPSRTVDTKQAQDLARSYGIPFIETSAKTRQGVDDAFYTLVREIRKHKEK
Chain of KRAS G12S (P62937 whole entry): as the sequence (P62937 whole entry) above
Chain of KRAS G13D (P01116-2 other isoform, or with tags, fused parts or gaps G13D): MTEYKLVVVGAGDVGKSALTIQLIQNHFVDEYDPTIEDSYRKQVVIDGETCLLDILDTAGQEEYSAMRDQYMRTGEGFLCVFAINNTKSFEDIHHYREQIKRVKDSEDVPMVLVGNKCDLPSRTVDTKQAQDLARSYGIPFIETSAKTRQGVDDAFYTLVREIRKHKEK
Chain of KRAS G13D (P62937 whole entry): as the sequence (P62937 whole entry) above
Chain of KRAS G12V (P01116-2 other isoform, or with tags, fused parts or gaps G12V): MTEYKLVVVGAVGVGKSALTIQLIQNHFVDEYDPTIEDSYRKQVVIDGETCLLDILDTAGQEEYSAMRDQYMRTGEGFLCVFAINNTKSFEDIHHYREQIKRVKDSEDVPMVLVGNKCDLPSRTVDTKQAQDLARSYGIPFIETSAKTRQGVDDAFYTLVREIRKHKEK
Chain of KRAS G12V (P62937 whole entry): as the sequence (P62937 whole entry) above
Chain of K-Ras G12C (P01116-2 other isoform, or with tags, fused parts or gaps G12C): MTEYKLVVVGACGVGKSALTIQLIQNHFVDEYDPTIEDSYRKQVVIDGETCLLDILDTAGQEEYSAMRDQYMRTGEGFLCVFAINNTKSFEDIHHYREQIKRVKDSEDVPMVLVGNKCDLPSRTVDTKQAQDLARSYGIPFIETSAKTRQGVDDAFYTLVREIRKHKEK
Chain of K-Ras G12C (P62937 whole entry): as the sequence (P62937 whole entry) above

EC50 [1]: < 5000 nM | IC50 [2]: 100 to 1000 nM | IC50 [3]: 1000 to 10000 nM | IC50 [4]: 1000 to 10000 nM | IC50 [5]: 1000 to 10000 nM | IC50 [6]: 100 to 1000 nM | IC50 [7]: 1000 to 10000 nM
Compound: C=CC(=O)C1CC[C@H](C(=O)N(C)[C@H](C(=O)N[C@H]2Cc3nsc(n3)-c3ccc4c(c3)c(c(-c3cccnc3[C@H](C)OC)n4CC)CC(C)(C)COC(=O)[C@@H]3CCCN(N3)C2=O)C(C)C)C1 (stereo partly shown) [Example A694]

From US11566007B2, “Ras inhibitors” (Revolution Medicines, Inc., priority 2019, dated 2023)
